Laboratory results: US20250387361A1, “METHODS OF ADMINISTERING GAMMA-HYDROXYBUTYRATE COMPOSITIONS WITH DIVALPROEX SODIUM” (Flamel Ireland Limited, priority 2020, published 2025)
Read-outs that look alike come from different tables or passages of the source.

Key:
plasma proteins = details: GHB concentrations 3 mcg/mL to 300 mcg/mL; cited from earlier work
[1] = cited from earlier work
[2] = cited from earlier work; remark: listed apart in the source
[3] = in vivo
Experimental: (§1) The study included a sequential, three period design with a single-dose administration of 6 g FT218 on Day 1 (Period 1), once daily 1250 mg divalproex sodium ER administration from Day 2-11 (Period 2), and FT218 and divalproex sodium ER co-administration on Day 12 (Period 3). All administrations were performed in the evening, 2 hours after the completion of dinner.
(§2) To compare the effect of FT218 on DVP, the concentration versus time curves for a 1250 mg dose of DVP administered alone (Day 11) and co-administered with FT218 (Day 12) were plotted together.

[4] = in vivo; remark: listed apart in the source
Experimental: as §1, with “morning,” for “evening,”, “a morning meal.” for “dinner.”
as §2

mouse = details: 2-year study; cited from earlier work
rat [5] = details: 2-year study; cited from earlier work
[6] = cited from earlier work; remark: listed apart in the source
patients = details: cited from earlier work; for incidence of depression: controlled trial titrated from 4.5 g, placebo 1.7%
CYP2D6 = CYP2D6 (Homo sapiens, UniProt P10635); details: up to 3 mM (378 mcg/mL); cited from earlier work
pregnant rats = details: cited from earlier work
CYP2C19 = CYP2C19 (Homo sapiens, UniProt P33261); details: up to 3 mM (378 mcg/mL); cited from earlier work
CYP1A2 = target: T1, CYP1A2 (Homo sapiens, UniProt P05177); details: up to 3 mM (378 mcg/mL); cited from earlier work
T1 sequence (P05177 1-516): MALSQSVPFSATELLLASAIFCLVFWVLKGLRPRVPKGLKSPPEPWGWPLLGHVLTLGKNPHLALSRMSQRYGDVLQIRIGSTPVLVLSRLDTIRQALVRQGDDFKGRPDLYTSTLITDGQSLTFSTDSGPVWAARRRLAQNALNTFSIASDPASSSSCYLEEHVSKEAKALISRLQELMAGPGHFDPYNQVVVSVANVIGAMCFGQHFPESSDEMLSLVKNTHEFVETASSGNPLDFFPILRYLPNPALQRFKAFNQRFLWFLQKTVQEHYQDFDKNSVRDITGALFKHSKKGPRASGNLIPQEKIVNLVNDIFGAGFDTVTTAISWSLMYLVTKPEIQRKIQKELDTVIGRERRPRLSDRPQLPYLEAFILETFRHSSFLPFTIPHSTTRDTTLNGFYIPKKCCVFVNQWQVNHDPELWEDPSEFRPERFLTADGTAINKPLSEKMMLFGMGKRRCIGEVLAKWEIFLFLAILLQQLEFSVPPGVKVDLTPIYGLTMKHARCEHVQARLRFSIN

CYP2C9 = CYP2C9 (Homo sapiens, UniProt P11712); details: up to 3 mM (378 mcg/mL); cited from earlier work
rats [7] = details: cited from earlier work
rat [8] = details: in vivo; cited from earlier work
[9] = cited from earlier work; for apparent oral clearance: 25 mg/kg oral
male and female rats = details: cited from earlier work
CYP3A = details: up to 3 mM (378 mcg/mL); cited from earlier work
CYP2E1 = CYP2E1 (Homo sapiens, UniProt P05181); details: up to 3 mM (378 mcg/mL); cited from earlier work
rats [10] = details: cited from earlier work; remark: listed apart in the source
rats [11] = details: cited from earlier work; remark: listed apart in the source
pregnant rabbits = details: cited from earlier work
bacterial gene mutation = details: in vitro; cited from earlier work
mammalian cells = details: in vitro; cited from earlier work
[12] = 6 g per day as two 3 g doses, ibuprofen 800 mg/dose four times per day
[13] = 9 g per night, 50 patients with obstructive sleep apnea
[14] = elderly (65 years or older), another population
[15] = of 781 patients with narcolepsy
[16] = younger adults, another population

CYP2C9, sequence (P11712 whole entry): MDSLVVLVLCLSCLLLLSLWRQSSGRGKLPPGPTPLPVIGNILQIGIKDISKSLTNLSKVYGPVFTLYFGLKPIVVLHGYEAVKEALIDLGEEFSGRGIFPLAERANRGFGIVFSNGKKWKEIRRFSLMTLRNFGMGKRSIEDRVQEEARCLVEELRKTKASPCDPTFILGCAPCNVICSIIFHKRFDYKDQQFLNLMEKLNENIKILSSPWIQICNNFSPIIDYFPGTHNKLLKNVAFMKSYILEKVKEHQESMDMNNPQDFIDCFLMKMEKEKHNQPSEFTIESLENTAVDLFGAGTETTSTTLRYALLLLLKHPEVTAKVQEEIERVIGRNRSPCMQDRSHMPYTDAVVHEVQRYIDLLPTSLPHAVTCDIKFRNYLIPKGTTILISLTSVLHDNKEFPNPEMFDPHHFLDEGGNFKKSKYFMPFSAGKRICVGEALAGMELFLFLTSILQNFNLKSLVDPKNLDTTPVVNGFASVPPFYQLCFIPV
CYP2C19, sequence (P33261 whole entry): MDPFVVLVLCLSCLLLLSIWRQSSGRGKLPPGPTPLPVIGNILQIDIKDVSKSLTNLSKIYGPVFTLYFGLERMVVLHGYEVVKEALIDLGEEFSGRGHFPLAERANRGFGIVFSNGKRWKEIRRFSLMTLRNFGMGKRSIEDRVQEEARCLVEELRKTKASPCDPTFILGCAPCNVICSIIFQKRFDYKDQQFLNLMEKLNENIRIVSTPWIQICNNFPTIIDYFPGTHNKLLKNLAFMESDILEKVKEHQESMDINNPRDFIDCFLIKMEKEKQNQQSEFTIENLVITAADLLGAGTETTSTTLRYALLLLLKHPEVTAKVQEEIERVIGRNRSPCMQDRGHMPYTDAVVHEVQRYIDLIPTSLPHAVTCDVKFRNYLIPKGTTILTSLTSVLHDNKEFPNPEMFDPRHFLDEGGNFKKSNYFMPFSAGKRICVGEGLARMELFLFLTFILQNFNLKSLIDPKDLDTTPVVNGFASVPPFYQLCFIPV
CYP2D6, sequence (P10635 whole entry): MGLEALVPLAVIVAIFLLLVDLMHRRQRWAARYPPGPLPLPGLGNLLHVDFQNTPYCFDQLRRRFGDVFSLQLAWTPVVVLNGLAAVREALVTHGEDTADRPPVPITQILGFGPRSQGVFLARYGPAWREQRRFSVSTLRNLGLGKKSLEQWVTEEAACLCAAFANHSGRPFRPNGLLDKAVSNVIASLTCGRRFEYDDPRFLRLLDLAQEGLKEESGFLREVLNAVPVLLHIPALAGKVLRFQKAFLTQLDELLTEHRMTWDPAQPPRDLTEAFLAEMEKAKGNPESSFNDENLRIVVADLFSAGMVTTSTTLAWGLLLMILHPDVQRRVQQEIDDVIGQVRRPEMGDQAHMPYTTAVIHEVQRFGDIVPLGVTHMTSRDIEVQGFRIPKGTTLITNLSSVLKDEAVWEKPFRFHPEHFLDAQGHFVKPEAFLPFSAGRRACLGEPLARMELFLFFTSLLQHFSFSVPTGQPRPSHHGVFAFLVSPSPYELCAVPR
CYP2E1, sequence (P05181 whole entry): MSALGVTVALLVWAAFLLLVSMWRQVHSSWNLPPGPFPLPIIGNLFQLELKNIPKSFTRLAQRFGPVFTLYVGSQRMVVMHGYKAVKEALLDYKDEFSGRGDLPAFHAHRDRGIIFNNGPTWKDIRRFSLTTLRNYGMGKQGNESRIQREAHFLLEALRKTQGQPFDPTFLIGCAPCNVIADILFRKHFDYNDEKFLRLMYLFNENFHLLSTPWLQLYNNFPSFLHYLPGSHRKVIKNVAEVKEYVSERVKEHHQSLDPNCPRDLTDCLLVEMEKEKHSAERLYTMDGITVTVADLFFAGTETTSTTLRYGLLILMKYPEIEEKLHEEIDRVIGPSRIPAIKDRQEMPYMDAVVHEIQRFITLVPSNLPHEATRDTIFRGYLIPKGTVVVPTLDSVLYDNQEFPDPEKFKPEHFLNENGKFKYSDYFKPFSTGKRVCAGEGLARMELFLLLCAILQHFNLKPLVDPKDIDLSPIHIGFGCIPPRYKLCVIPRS

## O=C(O)CCCO [GHB, gamma-hydroxybutyrate]
Plasma proteins
  bound to plasma proteins: less than 1%
[1]; after oral administration of sodium oxybate
  excretion in human milk: excreted in human milk
[1]; in vivo
  apparent volume of distribution: 0.19 to 0.384 L/kg
  elimination half-life: 30 to 60 min
  fecal excretion: negligible
[1]; intravenous administration to mothers
  placental transfer: rapid
[1]; within 6 to 8 hours after dosing
  unchanged drug in human urine: less than 5%
[2]; in vivo
  change in pharmacokinetics of GHB on alteration of gastric pH with omeprazole: no significant change

## CCCC(CCC)C(=O)O [divalproex sodium ER, divalproex sodium]
[3]; human
  decrease of valproic acid Cmax with FT218: approximately 5%
  valproic acid AUC0-24 T/R ratio [90% CI], Day 12 (with FT218) vs Day 11 (without): 97.28 [94.59-100.04]
  valproic acid Cmax T/R ratio [90% CI], Day 12 (with FT218) vs Day 11 (without): 94.82 [91.03-98.76]
[3]
  90% CIs of ratio of Cmax and AUC0-24 of valproic acid vs bioequivalence range (80.00%-125.00%): contained within the standard bioequivalence range
  tmax for valproic acid, with vs without FT218: comparable
[4]
  90% CIs of ratio of Cmax and AUC0-24 of valproic acid vs bioequivalence range (80.00%-125.00%): contained within the standard bioequivalence range

## O=C1CCCO1 [gamma-butyrolactone]
mouse
  carcinogenic activity: no clear evidence of carcinogenic activity
Rat [5]
  carcinogenic activity: no clear evidence of carcinogenic activity

## O=C([O-])CCCO.[Na+] [immediate-release sodium oxybate, sodium 4-hydroxybutyrate]
[6]; n=20, another studied population
  pharmacokinetic characteristics of GHB in younger (48 to 64 years) vs older (65 to 75 years) adults: consistent
[2]; 6 g per day as two 3 g doses four hours apart, diclofenac 50 mg/dose twice per day
  systemic exposure to GHB on co-administration with diclofenac: no significant changes
[2]; 6 g per day as two 3 g doses, diclofenac 50 mg/dose twice per day
  effect of co-administration on pharmacokinetics of diclofenac: did not appear to affect
[2]; [12]
  effect of co-administration on pharmacokinetics of ibuprofen: did not affect
  systemic exposure to GHB (plasma Cmax and AUC) on co-administration with ibuprofen: comparable systemic exposure
[2]; healthy adults
  pharmacokinetic interactions with protriptyline hydrochloride, zolpidem tartrate, and modafinil: no pharmacokinetic interactions
  pharmacokinetic or pharmacodynamic interactions with duloxetine HCl: no pharmacokinetic or clinically significant pharmacodynamic interactions
[2]; in vivo
  pharmacokinetic interactions with the alcohol dehydrogenase inhibitor fomepizole: no pharmacokinetic interactions
patients; 4.5 g per night
  incidence of depression: 1.5%
patients; 6 g per night
  incidence of depression: 3.2%
patients; 9 g per night, 50 patients with obstructive sleep apnea (three patients)
  patients with clinically significant oxygen desaturation (≤55%): 6%
patients; [13]
  number of central apneas: significant increase
  severity of sleep-disordered breathing: did not increase the severity of sleep-disordered breathing
patients; 9 g per night, controlled fixed-dose trial
  patients experiencing confusion: 17%
patients; 9 g per night
  incidence of depression: 3.6%
patients; 40 patients with baseline apnea/hypopnea index 16 to 67 events per hour, 4.5 g to 9 g per night
  clinically significant worsening of respiratory function: None of the 40 patients
patients; 128 patients with narcolepsy
  profound CNS depression: two subjects had profound CNS depression
patients; adult patients, clinical trials
  CNS depression at recommended doses: obtundation and clinically significant respiratory depression occurred
patients; clinical trial in patients with narcolepsy
  sleepwalking with potential injury or significant injury: Five instances
patients; controlled trial, fixed doses 3 g, 6 g or 9 g per night, at the 3 g per night dose
  events of depression: a single event of depression
patients; doses up to 9 g per night, 21 patients with narcolepsy
  dose-related changes in oxygen saturation: no dose-related changes in oxygen saturation
patients; [14]
  discontinuations of treatment due to adverse reactions: 21%
  frequency of headaches: 39%
patients; four of 781 patients
  patients discontinuing because of depression: < 1%
patients; human, in vivo
  patients discontinuing due to sleepwalking: < 1%
  patients who discontinued because of confusion: Less than 1%
patients; [15]
  patients reporting adverse reactions of depression: 7%
  patients who experienced confusion: 3%
patients; of 781 patients with narcolepsy, controlled and long-term open-label studies
  patients reporting sleepwalking: 6%
patients; of 874 patients, another population
  patients in whom anxiety occurred: 5.8%
patients; patients with narcolepsy (n=781)
  suicides and attempted suicides: two suicides and two attempted suicides
patients; patients with preexisting moderate-to-severe sleep apnea
  significant worsening of apnea/hypopnea index: One of four patients
patients; trial titrated from 4.5 g per night, at the 9 g per night dose
  events of confusion: a single event of confusion
patients; [16]
  discontinuations of treatment due to adverse reactions: 19%
  frequency of headaches: 19%

## O=C([O-])CCCO.[Na+] [sodium oxybate, sodium 4-hydroxybutyrate]
CYP2D6
  inhibition of CYP2D6 activity: does not significantly inhibit
Pregnant rats; 1,000 mg/kg/day
  highest dose tested relative to MRHD of 9 g per night (mg/m^2 basis): approximately 1 times
Pregnant rats; oral 150, 350, or 1,000 mg/kg/day throughout organogenesis
  developmental toxicity: no clear evidence of developmental toxicity
CYP2C19
  inhibition of CYP2C19 activity: does not significantly inhibit
CYP1A2
  inhibition of CYP1A2 activity: does not significantly inhibit
CYP2C9
  inhibition of CYP2C9 activity: does not significantly inhibit
Rats [7]; at the highest dose tested (900 mg/kg/day)
  growth and maturation findings: Reduced body weight gain in males and females and delayed sexual maturation in males
Rats [7]; oral 0, 100, 300, or 900 mg/kg/day, postnatal days 21 through 90
  mortality: mortality was observed at the two highest doses tested
Rat [8]
  micronucleus: negative
[9]; Child's Class A cirrhotic patients
  apparent oral clearance: 4.5 mL/min/kg
[9]; Child's Class C cirrhotic patients
  apparent oral clearance: 4.1 mL/min/kg
[9]; Class C patients
  mean t1/2: 59 min
[9]; healthy adults
  apparent oral clearance: 9.1 mL/min/kg
[9]; single oral dose of 25 mg/kg
  AUC values in cirrhotic patients vs normal hepatic function: doubled
Male and female rats; 1,000 mg/kg/day
  highest dose tested relative to MRHD on a mg/m^2 basis: approximately equal to the MRHD
Male and female rats; oral 150, 350, or 1,000 mg/kg/day prior to and throughout mating, females through early gestation
  effects on fertility: no adverse effects on fertility
CYP3A
  inhibition of CYP3A activity: does not significantly inhibit
[6]; 18 female and 18 male healthy adults, 4.5 g oral dose
  gender differences in pharmacokinetics of GHB: no gender differences were detected
CYP2E1
  inhibition of CYP2E1 activity: does not significantly inhibit
Rats [10]; 1,000 mg/kg/day
  plasma exposure (AUC) at the highest dose tested relative to humans at MRHD of 9 g per night: 2 times
Rats [10]; oral doses up to 1,000 mg/kg/day for 83 (males) or 104 (females) weeks
  tumors: no increase in tumors
Rats [11]; oral 150, 350, or 1,000 mg/kg/day, at the highest dose tested
  pre- and postnatal findings: increased stillbirths and decreased offspring postnatal viability and body weight gain
Rats [11]; rat, in vivo
  no-effect dose for pre- and postnatal developmental toxicity relative to MRHD (mg/m^2 basis): less than the MRHD
Pregnant rabbits; 1,200 mg/kg/day
  highest dose tested relative to MRHD of 9 g per night (mg/m^2 basis): ~3 times
Pregnant rabbits; oral 300, 600, or 1,200 mg/kg/day throughout organogenesis
  developmental toxicity: no clear evidence of developmental toxicity
Bacterial gene mutation
  bacterial gene mutation: negative
Mammalian cells
  chromosomal aberration: negative
